In patent US20120016010A1, “RNA Interference Mediated Inhibition of BTB and CNC Homology 1, Basic Leucine Zipper Transcription Factor 1 (BACH1) Gene Expression Using Short Interfering Nucleic Acid (siNA)” (Merck Sharp & Dohme Corp, priority 2009, published 2012):

Tests used:
Type in all cases: cell-based
Bach1 mRNA [1] = assay: Initial screen: Bach1 mRNA knock-down in mouse NIH 3T3 cells (96-well transfection, quantitative RT-PCR); conditions: mouse NIH3T3 cells, n = 2, 24 hrs post-transfection, protocol 10 nM siNA
Bach1 mRNA [2] = assay: Dose-response curve of Bach1 mRNA knock-down in human A549 cells; conditions: for Maximum % KD in DRC: Table 6, Bach1 mRNA, mean ± SD; for IC50: Table 6, mean ± SD
[3] = system: human GAPDH mRNA transcript; assay: GAPDH specificity screen in human A549 cells; conditions: Table 5; 1 nM siNA, STAT 4 as endogenous control, relative to universal control siNA
Procedure: To evaluate the expression level and % knock-down of GAPDH, STAT 4 gene was used as an endogenous control to calculate ΔCt for siNA treated samples and the universal control:
STAT 4 gene was selected as an internal normalizer based on its relatively consistent expression across 49 test samples in three independent experiments. ΔΔCt, Relative expression level and % KD were calculated as described above.
The specificity of these siNAs was also assessed. These siNAs were tested at a lower concentration (1 nM versus the original screening concentration of 10 nM) to determine the effect of the Bach1 siNAs on the mRNA transcript of human GAPDH.

Substance	% KD (Bach1 mRNA [1]) [%]	Maximum % KD in DRC (Bach1 mRNA [2]) [%]	IC50 (Bach1 mRNA [2]) [pM]	% KD GAPDH [3] [%]
29947-DC (sense GGAAUCCUGCUUUCAGUUUTT; antisense AAACUGAAAGCAGGAUUCCUU; inverted abasic caps (B), 2'-modified nucleotides, further chemistry not given here)	46 ± 5.8	86 ± 0.5	27 ± 5	−15 ± 29
29956-DC (sense GUCUGAGUGUCCGUGGUUATT; antisense UAACCACGGACACUCAGACUU; inverted abasic caps (B), 2'-modified nucleotides, further chemistry not given here)	−14.5 ± 8.4	80 ± 7.7	28 ± 18	−18 ± 15
29957-DC (sense GCAGUUACUUCCACUCAAGTT; antisense CUUGAGUGGAAGUAACUGCUU; inverted abasic end caps, TT overhangs, modified nucleotides, further chemistry not given here)	42.4 ± 1.2	87 ± 0.9	39 ± 13	−10 ± 9
29961-DC (sense CUACACUGCUAAACUGAUUTT; antisense AAUCAGUUUAGCAGUGUAGUU; inverted abasic end caps, TT overhangs, modified nucleotides, further chemistry not given here)	−23.5 ± 4.6	89 ± 2.2	10 ± 4	7 ± 7
29964-DC (sense GAUUUGCAGGUGAUGUUAATT; antisense UUAACAUCACCUGCAAAUCUU; inverted abasic end caps, TT overhangs, modified nucleotides, further chemistry not given here)	19.6 ± 3.9	87 ± 2.8	27 ± 15	14 ± 2
29984-DC (sense GUUAAAGGAUUUGAACCUUTT; antisense AAGGUUCAAAUCCUUUAACUU; inverted abasic end caps, TT overhangs, modified nucleotides, further chemistry not given here)	50.5 ± 0.8			
29988-DC (sense AUUUGAACCUUUAAUUCAGTT; antisense CUGAAUUAAAGGUUCAAAUUU; inverted abasic end caps, TT overhangs, modified nucleotides, further chemistry not given here)	71.3 ± 8.9	84 ± 0.9	63 ± 19	23 ± 5
